The text below walks through data of EP0567562B1, “METHODS FOR DETECTING GLUCAGON ANTAGONISTS” (ZYMOGENETICS, INC., priority 1991, dated 1996).

This assay concerns glucagon receptor. Nature of the assay: Glucagon antagonist screening assay: adenylate cyclase reaction with rat liver membranes, cAMP measured by Scintillation Proximity Assay. The class given is biochemical.

Description: Young female Sprague-Dawley rats were used for the preparation of liver membranes using the method essentially described by Neville (ibid.) and modified by Pohl et al. (ibid). Ten to 15 rats yielding 60-100 grams of liver were processed per batch. After the rats were euthanized by cervical dislocation, their livers were surgically removed and transferred, as quickly as possible, to an iced beaker. Scissors were used to mince the tissue into pieces approximately 3-6 mm in size. Any connective tissue that was present was removed.
The minced tissue was suspended in ice cold 1 mM sodium bicarbonate at a concentration of approximately 300 g/I. This suspension was processed in batches in a tissue homogenizer with eight strokes of the loose pestle. […]
After centrifugation, as much of the supernatant as possible was carefully decanted and discarded, and the pellets were gently resuspended in the remaining supernatant with three strokes of the loose pestle in a clean tissue homogenizer. […] After thorough mixing, the sucrose concentration was measured with a refractometer and adjusted to between 43.9% and 44 1% sucrose (corresponding to a refractive index between 1.4076 and 1.4080) with either 69% sucrose or water. […]

For the compound `CSCC[C@H](NC(=O)[C@H](CC(C)C)NC(=O)[C@H](Cc1c[nH]c2ccccc12)NC(=O)[C@H](CCC(N)=O)NC(=O)[C@@H](NC(=O)[C@H](Cc1ccccc1)NC(=O)[C@H](CC(=O)O)NC(=O)[C@H](CCC(N)=O)NC(=O)[C@H](C)NC(=O)[C@H](CCCNC(=N)N)NC(=O)[C@H](CCCNC(=N)N)NC(=O)[C@H](CO)NC(=O)[C@H](CC(=O)O)NC(=O)[C@H](CC(C)C)NC(=O)[C@H](Cc1ccc(O)cc1)NC(=O)[C@H](CCCCN)NC(=O)[C@H](CO)NC(=O)[C@H](Cc1ccc(O)cc1)NC(=O)[C@H](CC(=O)O)NC(=O)[C@H](CO)NC(=O)[C@@H](NC(=O)[C@H](Cc1ccccc1)NC(=O)[C@@H](NC(=O)CNC(=O)[C@H](CCC(N)=O)NC(=O)[C@@H](N)CO)[C@@H](C)O)[C@@H](C)O)C(C)C)C(=O)N[C@@H](CC(N)=O)C(=O)N[C@H](C(=O)O)[C@@H](C)O` [des-His^1-glucagon], the “antagonist activity: CAMP response of rat liver membranes to three concentrations of glucagon” value (culture broth of the yeast strain, compared with control strains making des-His^1-glucagon and des-His^1-[Glu^9]glucagon) is given as “weak antagonist”.

Take glucagon [ZB210]: for the setting “yeast culture broth, no exogenous glucagon”, the “stimulation of adenylate cyclase activity by culture broth in the absence of exogenous glucagon” value is listed as “stimulation of adenylate cyclase activity even in the absence of exogenous glucagon”.
